Structures are written as SMILES.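 Dose response: 5 concentrations. Exposure: 48 h. Format: 96-well plates. Endpoint: linear interpolation; highest concentration if not reached. GI50 marks 50% less growth. TGI is the concentration that stops growth completely.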

Drawing on PubChem BioAssay (NCI), this text covers GI50 and TGI for five compounds.

Among the test systems are A549 NSCLC; IGROV1 ovarian; NCI-H522 lung; NCI/ADR-RES ovarian; OVCAR-5 ovarian; OVCAR-8 ovarian; SK-OV-3 ovarian; SNB-19 CNS; SNB-75 CNS; U251 CNS.
Assay in all cases: growth of human tumour cells (NCI), 48 h

`Cc1cc(C(=O)Nc2cc(Nc3ncccc3-c3ncnc4nc[nH]c34)ccc2F)cc(C(C)(C)C#N)c1`: the GI50 with A549 NSCLC was 3.77 µM; in the assay with IGROV1 ovarian it was 0.694 µM; in the assay with NCI-H522 lung it was 3.54 µM; in the assay with NCI/ADR-RES ovarian, 2.81 µM; with OVCAR-5 ovarian, 0.211 µM; in the assay on OVCAR-8 ovarian it was 3.02 µM. The GI50 is 26 µM with SK-OV-3 ovarian, 4.31 µM in the assay with SNB-19 CNS, 8.92 µM in the assay on SNB-75 CNS and 3.74 µM in the assay with U251 CNS. The TGI in the assay with A549 NSCLC, with IGROV1 ovarian, in the assay on NCI-H522 lung, in the assay on NCI/ADR-RES ovarian, in the assay with OVCAR-5 ovarian and with OVCAR-8 ovarian was over 100 µM in each case. Also, the TGI with SK-OV-3 ovarian, with SNB-19 CNS, with SNB-75 CNS and in the assay with U251 CNS was over 100 µM throughout.
As to `Cc1cc2c(-c3nc4ccccn4c3NC34CC5CC(CC(C5)C3)C4)c(O)c(O)cc2c(O)c1-c1c(C)cc2c(-c3nc4ccccn4c3NC34CC5CC(CC(C5)C3)C4)c(O)c(O)cc2c1O`, the GI50 with A549 NSCLC is 0.255 µM; in the assay on IGROV1 ovarian, 0.883 µM; with NCI-H522 lung, 0.613 µM; with NCI/ADR-RES ovarian, 1.05 µM; in the assay with OVCAR-5 ovarian it was 0.922 µM; with OVCAR-8 ovarian, 0.871 µM. Moreover, the GI50 with SK-OV-3 ovarian is 0.749 µM; in the assay on SNB-19 CNS, 0.214 µM; in the assay on SNB-75 CNS, 1.04 µM; with U251 CNS, 0.106 µM. Further, the TGI in the assay on A549 NSCLC was over 25 µM; in the assay with IGROV1 ovarian, over 25 µM; in the assay on NCI-H522 lung, 3.54 µM; in the assay with NCI/ADR-RES ovarian, over 25 µM; with OVCAR-5 ovarian it was over 25 µM; in the assay with OVCAR-8 ovarian, over 25 µM. Moreover, the TGI was determined as 2.3 µM with SK-OV-3 ovarian, 3.99 µM with SNB-19 CNS, 19.1 µM in the assay on SNB-75 CNS and 3.3 µM with U251 CNS.
`CC[C@H](C)[C@H](NC(=O)N[C@@H](C)c1ccccc1)C(=O)N(C)[C@H](C[C@@H](OC(C)=O)c1nc(C(=O)N[C@@H](Cc2ccccc2)C[C@H](C)C(=O)OC)cs1)C(C)C`: the GI50 is 67.3 µM with A549 NSCLC; 20.9 µM with IGROV1 ovarian; 13 µM in the assay on NCI-H522 lung; 45.8 µM with NCI/ADR-RES ovarian; 27.9 µM with OVCAR-5 ovarian; 35.4 µM in the assay on OVCAR-8 ovarian. Also, the GI50 is 42.2 µM in the assay on SK-OV-3 ovarian, 28.6 µM in the assay with SNB-19 CNS, 13.8 µM with SNB-75 CNS and 33.1 µM in the assay on U251 CNS. In addition, the TGI with A549 NSCLC was over 100 µM; in the assay on IGROV1 ovarian, over 100 µM; in the assay with NCI-H522 lung, 42.1 µM; with NCI/ADR-RES ovarian it was over 100 µM; in the assay on OVCAR-5 ovarian it was over 100 µM; in the assay on OVCAR-8 ovarian, over 100 µM. In addition, the TGI in the assay with SK-OV-3 ovarian, in the assay on SNB-19 CNS, in the assay with SNB-75 CNS and in the assay with U251 CNS was over 100 µM in each case.
For the compound `COc1ccc(-c2nn(-c3cccc(Cl)c3)cc2-c2cc(-c3cccs3)no2)cc1`, the GI50 in the assay with A549 NSCLC was 3.56 µM; in the assay with IGROV1 ovarian, 4 µM; in the assay with NCI-H522 lung, 4.27 µM; with NCI/ADR-RES ovarian, 4.01 µM; in the assay on OVCAR-5 ovarian, 7.63 µM; in the assay on OVCAR-8 ovarian, 4.04 µM. The GI50 in the assay with SK-OV-3 ovarian is 8.89 µM; with SNB-19 CNS it was 6.09 µM; with SNB-75 CNS it was 3.52 µM; with U251 CNS, 3.61 µM. Further, the TGI with A549 NSCLC is 24.5 µM; in the assay on IGROV1 ovarian, 16.2 µM; in the assay with NCI-H522 lung it was 18.4 µM; in the assay with NCI/ADR-RES ovarian it was 38.1 µM; in the assay with OVCAR-5 ovarian, 74.1 µM; in the assay with OVCAR-8 ovarian it was 36 µM. In addition, the TGI with SK-OV-3 ovarian is 44.1 µM; in the assay on SNB-19 CNS it was over 100 µM; in the assay on SNB-75 CNS, 34.7 µM; with U251 CNS, 15.4 µM.
For the compound `Cc1ccc(NCCNCC(O)CO)c2c(=O)c3ccccc3sc12` (stereo not given), the GI50 in the assay on A549 NSCLC is 0.849 µM; in the assay with IGROV1 ovarian, 1.61 µM; with NCI-H522 lung it was 1.91 µM; in the assay with NCI/ADR-RES ovarian, 1.67 µM; with OVCAR-5 ovarian it was 1.74 µM; in the assay on OVCAR-8 ovarian, 1.92 µM. Further, the GI50 was 1.65 µM in the assay with SK-OV-3 ovarian, 1.52 µM with SNB-19 CNS, 2.07 µM in the assay with SNB-75 CNS and 1.67 µM in the assay on U251 CNS. For the same compound, the TGI came to 2.38 µM in the assay with A549 NSCLC; 3.43 µM in the assay on IGROV1 ovarian; 4.09 µM in the assay on NCI-H522 lung; 3.75 µM in the assay on NCI/ADR-RES ovarian; 3.67 µM in the assay on OVCAR-5 ovarian; 4.77 µM in the assay on OVCAR-8 ovarian. Further, the TGI in the assay with SK-OV-3 ovarian is 3.86 µM; in the assay with SNB-19 CNS, 3.23 µM; with SNB-75 CNS, 11.5 µM; with U251 CNS, 3.51 µM.
